The values that follow come from patent US11767323B2, “Tricyclic pyridone compounds as JAK2 V617F inhibitors” (Incyte Corporation, priority 2020, dated 2023).

Structures are written as SMILES.

Assay [1] deals with pseudo-kinase domain (JH2, amino-acids 536-812) of human V617F mutant JAK2 (Homo sapiens (Human), UniProt O60674, F794H/V617F/W659A/W777A). Kind of assay: JAK2 LanthaScreen JH2-V617F Binding Assay. The conditions noted are these: JAK2 JH2-V617F 0.26 nM, 50 nM tracer, 1 hour at 25° C.; read-out: JH2 BIND V617F IC50. The procedure:
Example C. JAK2 LanthaScreen JH2-V617F Binding Assay
(§1) JAK2 JH2-V617F binding assay utilizes pseudo-kinase domain (JH2, amino-acids 536-812 with 3 surface mutations W659A, W777A, F794H) of human V617F mutant JAK2 expressed as C-terminal His-Avi-tagged, biotinylated protein in a baculovirus expression system (BPS Bioscience, Catalog #79498). The assay was conducted in black 384-well polystyrene plates in a final reaction volume of 20 μL. JAK2 JH2-V617F (0.26 nM) was incubated with compounds (100 nL serially diluted in DMSO) in the presence of 50 nM Fluorescent JAK2-JH2 Tracer (MedChem Express Catalog #HY-102055) and 0.25 nM Streptavidin-Tb cryptate (Cisbio Part #610SATLB) in assay buffer (50 mM Tris, pH=7.5, 10 mM MgCl2, 0.01% Brij-35, 0.1% BSA, 1 mM EGTA, 5% Glycerol and 5 mM DTT). Non-specific binding was accessed in the presence of 2 mM ATP. After incubation for 1 hour at 25° C., LanthaScreen signals were read on a PHERAstar FS plate reader (BMG LABTECH). Data was analyzed with IDBS XLfit and GraphPad Prism 5.0 software using a four parameter dose response curve to determine IC50 for each compound.
(In general: In TR-FRET formats the signal depends on donor and acceptor labels being close together.)

Assay [2] concerns the target catalytic domain (JH1, amino acids 826-1132) of human JAK2 (Homo sapiens (Human), UniProt O60674). The experiment in a line: JAK2 LanthaScreen JH1 Binding Assay. Particulars: JAK2 JH1 1.5 nM, 50 nM tracer, 2 hours at 25° C.; read-out: JH1 BIND IC50. The method, then:
Example A. JAK2 LanthaScreen JH1 Binding Assay
JAK2 JH1 binding assay utilizes catalytic domain (JH1, amino acids 826-1132) of human JAK2 expressed as N-terminal FLAG-tagged, biotinylated protein in a baculovirus expression system (Carna Biosciences, Product #08-445-20N). The assay was conducted in black 384-well polystyrene plates in a final reaction volume of 20 μL. JAK2 JH1 (1.5 nM) was incubated with compounds (100 nL serially diluted in DMSO) in the presence of 50 nM Fluorescent JAK2-JH1 Tracer and 0.5 nM Streptavidin-Tb cryptate (Cisbio Part #610SATLB) in assay buffer (50 mM Tris, pH=7.5, 10 mM MgCl2, 0.01% Brij-35, 0.1% BSA, 1 mM EGTA, 5% Glycerol and 5 mM DTT). Non-specific binding was accessed in the presence of 2 mM ATP. After incubation for 2 hours at 25° C., LanthaScreen signals were read on a PHERAstar FS plate reader (BMG LABTECH). Data was analyzed with IDBS XLfit and GraphPad Prism 5.0 software using a four parameter dose response curve to determine IC50 for each compound.

The target of assay [3] is pseudo-kinase domain (JH2, amino-acids 536-812) of human Wild Type JAK2 (Homo sapiens (Human), UniProt O60674, F794H/W659A/W777A). Kind of assay: JAK2 LanthaScreen JH2-WT Binding Assay. Particulars: JAK2 JH2-WT 0.145 nM, 50 nM tracer, 1 hour at 25° C.; read-out: JH2 BIND WT IC50. The procedure: Example B. JAK2 LanthaScreen JH2-WT Binding Assay
as §1, with “JH2-WT” for “JH2-V617F”, “Wild Type” for “V617F mutant”, “#79463).” for “#79498).”, “JH2-WT (0.145” for “JH2-V617F (0.26”, “LAB TECH).” for “LABTECH).”

The target in assay [4] is catalytic domain (JH1, amino acids 808-1132) of human JAK2 (Homo sapiens (Human), UniProt O60674). The experiment in a line: JAK2 HTRF Enzyme Activity Assay. The format is biochemical. The conditions noted are these: JAK2 0.015 nM, ATP (30 μM or 1 mM), 60 minutes at 25° C. The method, then:
Example D. JAK2 HTRF Enzyme Activity Assay
JAK2 enzyme activity assays utilize catalytic domain (JH1, amino acids 808-1132) of human JAK2 expressed as N-terminal His-tagged protein in a baculovirus expression system (BPS Bioscience, Catalog #40450). The assays was conducted in black 384-well polystyrene plates in a final reaction volume of 20 μL. JAK2 (0.015 nM) was incubated with compounds (100 nL serially diluted in DMSO) in the presence of ATP (30 μM or 1 mM) and 500 nM Biotin-labeled EQEDEPEGDYFEWLE (SEQ ID NO.: 1) peptide (BioSource International, custom synthesis) in assay buffer (50 mM Tris, pH=7.5, 10 mM MgCl2, 0.01% Brij-35, 0.1% BSA, 1 mM EGTA, 5% Glycerol and 5 mM DTT) for 60 minutes at 25° C. The reactions were stopped by the addition of 10 μL of detection buffer (50 mM Tris, pH 7.8, 0.5 mg/mL BSA, 150 mM NaCl), supplemented with EDTA, LANCE Eu-W1024 anti-phosphotyrosine (PY20), (PerkinElmer, Catalog #AD0067) and Streptavidin SureLight APC (PerkinElmer Catalog #CR130-100), for a final concentration of 15 mM, 1.5 nM and 75 nM, respectively. HTRF signals were read after 30 minutes incubation at room temperature on a PHERAstar FS plate reader (BMG LAB TECH). Data was analyzed with IDBS XLfit and GraphPad Prism 5.0 software using a four parameter dose response curve to determine IC50 for each compound.

pseudo-kinase domain (JH2, amino-acids 536-812) of human V617F mutant JAK2, sequence (O60674 536-812 V617F/W659A/W777A/F794H): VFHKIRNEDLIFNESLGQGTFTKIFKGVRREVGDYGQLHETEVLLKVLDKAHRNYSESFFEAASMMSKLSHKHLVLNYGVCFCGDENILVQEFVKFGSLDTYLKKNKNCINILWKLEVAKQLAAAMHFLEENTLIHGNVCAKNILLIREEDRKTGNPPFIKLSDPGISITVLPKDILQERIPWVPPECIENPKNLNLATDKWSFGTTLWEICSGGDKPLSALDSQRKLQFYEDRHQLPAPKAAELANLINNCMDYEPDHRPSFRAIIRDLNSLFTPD
catalytic domain (JH1, amino acids 826-1132) of human JAK2, sequence (O60674 826-1132): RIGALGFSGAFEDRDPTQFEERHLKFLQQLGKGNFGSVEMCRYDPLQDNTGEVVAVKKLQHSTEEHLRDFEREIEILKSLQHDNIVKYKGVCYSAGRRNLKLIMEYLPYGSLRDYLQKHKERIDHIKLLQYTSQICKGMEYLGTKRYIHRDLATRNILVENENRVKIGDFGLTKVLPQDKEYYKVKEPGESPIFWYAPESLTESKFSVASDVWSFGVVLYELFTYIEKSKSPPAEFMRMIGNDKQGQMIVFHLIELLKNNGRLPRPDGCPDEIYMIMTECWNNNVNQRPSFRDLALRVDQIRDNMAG
pseudo-kinase domain (JH2, amino-acids 536-812) of human Wild Type JAK2, sequence (O60674 536-812 W659A/W777A/F794H): as the sequence (O60674 536-812 V617F/W659A/W777A/F794H) above, with F82V counted along it
catalytic domain (JH1, amino acids 808-1132) of human JAK2, sequence (O60674 808-1132): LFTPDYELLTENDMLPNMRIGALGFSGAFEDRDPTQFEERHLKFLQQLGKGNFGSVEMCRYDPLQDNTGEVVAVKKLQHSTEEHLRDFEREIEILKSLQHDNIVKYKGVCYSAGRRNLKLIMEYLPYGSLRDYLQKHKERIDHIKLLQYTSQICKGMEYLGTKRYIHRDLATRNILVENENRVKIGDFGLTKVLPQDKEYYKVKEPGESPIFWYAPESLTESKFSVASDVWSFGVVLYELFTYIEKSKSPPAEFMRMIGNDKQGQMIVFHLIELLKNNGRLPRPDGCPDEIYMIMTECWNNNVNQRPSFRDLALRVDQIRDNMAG

As usually defined, the IC50 is the concentration that inhibits the measured activity by half. In the case of `COc1ccc(-c2c(C)c3c4cc(-c5ccc(CN6CCC(S(C)(=O)=O)CC6)cc5)[nH]c4ncc3n(C)c2=O)cc1` [Example 12, 8-(4-Methoxyphenyl)-6,9-dimethyl-2-(4-((4-(methylsulfonyl)piperidin-1-yl)methyl)phenyl)-3,6-dihydro-7H-pyrrolo[3,2-f][1,7]naphthyridin-7-one], the concentration for half-maximal inhibition (IC50) was no more than 0.1 µM in assay [1], 0.1 to 0.5 µM in assay [2], no more than 0.1 µM in assay [3] and no more than 0.1 µM in assay [4].

With `Cc1c(-c2ccc(C#N)cc2)c(=O)n(C)c2cnc3[nH]c(-c4ccc(CN5CCC(S(C)(=O)=O)CC5)cc4)cc3c12` [Example 13, 4-(6,9-Dimethyl-2-(4-((4-(methylsulfonyl)piperidin-1-yl)methyl)phenyl)-7-oxo-6,7-dihydro-3H-pyrrolo[3,2-f][1,7]naphthyridin-8-yl)benzonitrile], the IC50 in assay [1] was no more than 0.1 µM; in assay [2], 0.1 to 0.5 µM; in assay [3], no more than 0.1 µM; in assay [4], 0.1 to 0.5 µM.

For the compound `Cn1c(=O)c(-c2ccc(C(=O)O)cc2)cc2c3cc(-c4ccc(CN5CCC(S(C)(=O)=O)CC5)cc4)[nH]c3ncc21` [Example 14, 4-(6-Methyl-2-(4-((4-(methylsulfonyl)piperidin-1-yl)methyl)phenyl)-7-oxo-6,7-dihydro-3H-pyrrolo[3,2-f][1,7]naphthyridin-8-yl)benzoic acid], the IC50 was no more than 0.1 µM in assay [1], 0.1 to 0.5 µM in assay [2], no more than 0.1 µM in assay [3] and 0.1 to 0.5 µM in assay [4].

Take `CCn1c(=O)c(-c2ccc(C(=O)O)cc2)cc2c3cc(-c4ccc(CN5CCC(S(C)(=O)=O)CC5)cc4)[nH]c3ncc21` [Example 15, 4-(6-Ethyl-2-(4-((4-(methylsulfonyl)piperidin-1-yl)methyl)phenyl)-7-oxo-6,7-dihydro-3H-pyrrolo[3,2-f][1,7]naphthyridin-8-yl)benzoic acid]: the IC50 in assay [1] was 1 to 10 µM; in assay [2], 1 to 10 µM; in assay [3], 0.5 to 1 µM; in assay [4], 1 to 10 µM.

For the compound `CCc1c(-c2ccc(C(=O)O)cc2)c(=O)n(C)c2cnc3[nH]c(-c4ccc(CN5CCC(S(C)(=O)=O)CC5)cc4)cc3c12` [Example 16, 4-(9-Ethyl-6-methyl-2-(4-((4-(methylsulfonyl)piperidin-1-yl)methyl)phenyl)-7-oxo-6,7-dihydro-3H-pyrrolo[3,2-f][1,7]naphthyridin-8-yl)benzoic acid], the IC50 in assay [1] was no more than 0.1 µM; in assay [2], 0.1 to 0.5 µM; in assay [3] it was no more than 0.1 µM; in assay [4], 0.1 to 0.5 µM.

As to `Cc1cc(=O)[nH]c2cnc3[nH]c(-c4ccc(CN5CCC(S(C)(=O)=O)CC5)cc4)cc3c12` [Example 17, 9-Methyl-2-(4-((4-(methylsulfonyl)piperidin-1-yl)methyl)phenyl)-3,6-dihydro-7H-pyrrolo[3,2-f][1,7]naphthyridin-7-one], the IC50 in assay [1], in assay [2], in assay [3] and in assay [4] was 1 to 10 µM in each case.

In the case of `Cc1c(-c2ccc([N+](=O)[O-])cc2)c(=O)[nH]c2cnc3[nH]c(-c4ccc(CN5CCC(S(C)(=O)=O)CC5)cc4)cc3c12` [Example 18, 9-Methyl-2-(4-((4-(methylsulfonyl)piperidin-1-yl)methyl)phenyl)-8-(4-nitrophenyl)-3,6-dihydro-7H-pyrrolo[3,2-f][1,7]naphthyridin-7-one], the IC50 lay within 1 to 10 µM in assay [1], 1 to 10 µM in assay [2], 0.5 to 1 µM in assay [3] and 1 to 10 µM in assay [4].

Regarding `Cc1c(-c2ccc3c(c2)OCCO3)c(=O)[nH]c2cnc3[nH]c(-c4ccc(CN5CCC(S(C)(=O)=O)CC5)cc4)cc3c12` [Example 19, 8-(2,3-Dihydrobenzo[6][1,4]dioxin-6-yl)-9-methyl-2-(4-((4-(methylsulfonyl)piperidin-1-yl)methyl)phenyl)-3,6-dihydro-7H-pyrrolo[3,2-f][1,7]naphthyridin-7-one], the IC50 in assay [1], in assay [2], in assay [3] and in assay [4] was 1 to 10 µM in each case.

Regarding `COc1c(-c2ccccc2)c(=O)n(C)c2cnc3[nH]c(-c4ccc(CN5CCC(S(C)(=O)=O)CC5)cc4)cc3c12` [Example 20, 9-Methoxy-6-methyl-2-(4-((4-(methylsulfonyl)piperidin-1-yl)methyl)phenyl)-8-phenyl-3,6-dihydro-7H-pyrrolo[3,2-f][1,7]naphthyridin-7-one], the IC50 in assay [1] was 0.1 to 0.5 µM; in assay [2] it was no more than 0.1 µM; in assay [3], no more than 0.1 µM; in assay [4], no more than 0.1 µM.

As to `Cc1cc(-c2c(C3CCOCC3)c3c4cc(-c5ccc(CN6CCC(S(C)(=O)=O)CC6)cc5)[nH]c4ncc3n(C)c2=O)on1` [Example 21, 6-Methyl-8-(3-methylisoxazol-5-yl)-2-(4-((4-(methylsulfonyl)piperidin-1-yl)methyl)phenyl)-9-(tetrahydro-2H-pyran-4-yl)-3,6-dihydro-7H-pyrrolo[3,2-f][1,7]naphthyridin-7-one], the IC50 in assay [1] was no more than 0.1 µM; in assay [2], 0.1 to 0.5 µM; in assay [3], no more than 0.1 µM; in assay [4], 0.1 to 0.5 µM.

Regarding `COC1CCC(c2c(-c3cc(C)no3)c(=O)n(C)c3cnc4[nH]c(-c5cnn(C)c5)cc4c23)CC1` (centres unmarked) [Example 22, 9-(4-Methoxycyclohexyl)-6-methyl-2-(1-methyl-1H-pyrazol-4-yl)-8-(3-methylisoxazol-5-yl)-3,6-dihydro-7H-pyrrolo[3,2-f][1,7]naphthyridin-7-one], the IC50 in assay [1] is no more than 0.1 µM; in assay [2], 0.1 to 0.5 µM; in assay [3], no more than 0.1 µM; in assay [4], 0.1 to 0.5 µM.
